Results from PubChem BioAssay AID1963962 (Molecular Pharmacology Branch, DTP, NCI, 2024).

System: 967376-340-R-J2-PDC multicell spheroid viability
Test: Anticancer human tumor 967376-340-R-J2-PDC patient-derived colon adenocarcinoma cell line growth inhibition [PI3K]
Conditions: for viability, T/C: stronger effect = lower value
Procedure, shortened: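 Tumor cells grown as multi-cell spheroids with HUVEC endothelial cells and MSC fibroblast-like stroma were treated with targeted agents combined with inavolisib, alpelisib, duvelisib or copanlisib. Doses fell in half-log steps from near clinical Cmax, else from 10 microM. Viability was measured.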

[1] = curve of first compound, second compound 0.0316 µM
[2] = curve of first compound, second compound 0.1 µM
[3] = curve of first compound, second compound 0.316 µM
[4] = curve of first compound, second compound 1 µM
[5] = curve of first compound, second compound 3.16 µM
[6] = curve of first compound, second compound 10 µM
[7] = second compound 0.0316 µM, first compound 0.0316 µM
[8] = second compound 0.0316 µM, first compound 0.1 µM
[9] = second compound 0.0316 µM, first compound 0.316 µM
[10] = second compound 0.0316 µM, first compound 1 µM
[11] = second compound 0.0316 µM, first compound 3.16 µM
[12] = second compound 0.0316 µM, first compound 10 µM
[13] = second compound 0.1 µM, first compound 0.0316 µM
[14] = second compound 0.1 µM, first compound 0.1 µM
[15] = second compound 0.1 µM, first compound 0.316 µM
[16] = second compound 0.1 µM, first compound 1 µM
[17] = second compound 0.1 µM, first compound 3.16 µM
[18] = second compound 0.1 µM, first compound 10 µM
[19] = second compound 0.316 µM, first compound 0.0316 µM
[20] = second compound 0.316 µM, first compound 0.1 µM
[21] = second compound 0.316 µM, first compound 0.316 µM
[22] = second compound 0.316 µM, first compound 1 µM
[23] = second compound 0.316 µM, first compound 3.16 µM
[24] = second compound 0.316 µM, first compound 10 µM
[25] = second compound 1 µM, first compound 0.0316 µM
[26] = second compound 1 µM, first compound 0.1 µM
[27] = second compound 1 µM, first compound 0.316 µM
[28] = second compound 1 µM, first compound 1 µM
[29] = second compound 1 µM, first compound 3.16 µM
[30] = second compound 1 µM, first compound 10 µM
[31] = second compound 3.16 µM, first compound 0.0316 µM
[32] = second compound 3.16 µM, first compound 0.1 µM
[33] = second compound 3.16 µM, first compound 0.316 µM
[34] = second compound 3.16 µM, first compound 1 µM
[35] = second compound 3.16 µM, first compound 3.16 µM
[36] = second compound 3.16 µM, first compound 10 µM
[37] = second compound 10 µM, first compound 0.0316 µM
[38] = second compound 10 µM, first compound 0.1 µM
[39] = second compound 10 µM, first compound 0.316 µM
[40] = second compound 10 µM, first compound 1 µM
[41] = second compound 10 µM, first compound 3.16 µM
[42] = second compound 10 µM, first compound 10 µM
[43] = curve of first compound, second compound 0.00316 µM
[44] = curve of first compound, second compound 0.01 µM
[45] = second compound 0.00316 µM, first compound 0.0316 µM
[46] = second compound 0.00316 µM, first compound 0.1 µM
[47] = second compound 0.01 µM, first compound 0.0316 µM
[48] = second compound 0.01 µM, first compound 0.1 µM
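Note: spheroids exposed to agents for 7 days before read-out.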
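Throughout, for viability, T/C: luminescence used as surrogate of cell viability.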

## CC(C)NCC(C(=O)N1CCN(c2ncnc3c2C(C)CC3O)CC1)c1ccc(Cl)cc1 (centres undefined) + Cc1nc(NC(=O)N2CCCC2C(N)=O)sc1-c1ccnc(C(C)(C)C(F)(F)F)c1
[1]
  IC50: > 10 µM
[2]
  IC50: > 10 µM
[3]
  IC50: > 10 µM
[4]
  IC50: > 10 µM
[5]
  IC50: > 10 µM
[6]
  IC50: > 10 µM
[7]
  viability, T/C: 118%
[8]
  viability, T/C: 100%
[9]
  viability, T/C: 115%
[10]
  viability, T/C: 80.5%
[11]
  viability, T/C: 77.8%
[12]
  viability, T/C: 80.8%
[13]
  viability, T/C: 96.4%
[14]
  viability, T/C: 82.3%
[15]
  viability, T/C: 85.1%
[16]
  viability, T/C: 70.3%
[17]
  viability, T/C: 68.4%
[18]
  viability, T/C: 87%
[19]
  viability, T/C: 88.6%
[20]
  viability, T/C: 78.6%
[21]
  viability, T/C: 65.5%
[22]
  viability, T/C: 81.1%
[23]
  viability, T/C: 84%
[24]
  viability, T/C: 70%
[25]
  viability, T/C: 62.3%
[26]
  viability, T/C: 64.2%
[27]
  viability, T/C: 73%
[28]
  viability, T/C: 78.4%
[29]
  viability, T/C: 72.3%
[30]
  viability, T/C: 63.5%
[31]
  viability, T/C: 67.1%
[32]
  viability, T/C: 68%
[33]
  viability, T/C: 56.8%
[34]
  viability, T/C: 50.7%
[35]
  viability, T/C: 62.4%
[36]
  viability, T/C: 57.4%
[37]
  viability, T/C: 56%
[38]
  viability, T/C: 54.8%
[39]
  viability, T/C: 52.4%
[40]
  viability, T/C: 49.1%
[41]
  viability, T/C: 55.6%
[42]
  viability, T/C: 50.5%

## CNC(=O)c1ccc(N2C(=S)N(c3ccc(C#N)c(C(F)(F)F)c3)C(=O)C2(C)C)cc1F + Cc1nc(NC(=O)N2CCCC2C(N)=O)sc1-c1ccnc(C(C)(C)C(F)(F)F)c1
[1]
  IC50: > 10 µM
[2]
  IC50: > 10 µM
[3]
  IC50: > 10 µM
[4]
  IC50: > 10 µM
[5]
  IC50: > 10 µM
[6]
  IC50: > 10 µM
[7]
  viability, T/C: 72.6%
[8]
  viability, T/C: 93.5%
[9]
  viability, T/C: 90.1%
[10]
  viability, T/C: 98.6%
[11]
  viability, T/C: 107%
[12]
  viability, T/C: 105%
[13]
  viability, T/C: 129%
[14]
  viability, T/C: 85.5%
[15]
  viability, T/C: 86.8%
[16]
  viability, T/C: 88.5%
[17]
  viability, T/C: 101%
[18]
  viability, T/C: 84%
[19]
  viability, T/C: 64.2%
[20]
  viability, T/C: 72.8%
[21]
  viability, T/C: 92.6%
[22]
  viability, T/C: 83.5%
[23]
  viability, T/C: 115%
[24]
  viability, T/C: 85.8%
[25]
  viability, T/C: 65.6%
[26]
  viability, T/C: 70%
[27]
  viability, T/C: 65.6%
[28]
  viability, T/C: 68.5%
[29]
  viability, T/C: 79.7%
[30]
  viability, T/C: 75%
[31]
  viability, T/C: 58.9%
[32]
  viability, T/C: 62.6%
[33]
  viability, T/C: 58.7%
[34]
  viability, T/C: 55.9%
[35]
  viability, T/C: 63.6%
[36]
  viability, T/C: 59%
[37]
  viability, T/C: 63.9%
[38]
  viability, T/C: 55%
[39]
  viability, T/C: 53.2%
[40]
  viability, T/C: 57.3%
[41]
  viability, T/C: 47.3%
[42]
  viability, T/C: 59.5%

## CC(=O)c1c(C)c2cnc(Nc3ccc(N4CCNCC4)cn3)nc2n(C2CCCC2)c1=O + CC(Nc1ccc2c(c1)OCCn1cc(N3C(=O)OCC3C(F)F)nc1-2)C(N)=O
[43]
  IC50: > 0.1 µM
[44]
  IC50: > 0.1 µM
[1]
  IC50: > 0.1 µM
[2]
  IC50: > 0.1 µM
[3]
  IC50: > 0.1 µM
[4]
  IC50: > 0.1 µM
Second compound 0.00316 µM, first compound 0.000316 µM
  viability, T/C: 111%
Second compound 0.00316 µM, first compound 0.001 µM
  viability, T/C: 79.3%
Second compound 0.00316 µM, first compound 0.00316 µM
  viability, T/C: 93.8%
Second compound 0.00316 µM, first compound 0.01 µM
  viability, T/C: 102%
[45]
  viability, T/C: 114%
[46]
  viability, T/C: 87.4%
Second compound 0.01 µM, first compound 0.000316 µM
  viability, T/C: 100%
Second compound 0.01 µM, first compound 0.001 µM
  viability, T/C: 101%
Second compound 0.01 µM, first compound 0.00316 µM
  viability, T/C: 96.4%
Second compound 0.01 µM, first compound 0.01 µM
  viability, T/C: 93%
[47]
  viability, T/C: 94.7%
[48]
  viability, T/C: 75.8%
Second compound 0.0316 µM, first compound 0.000316 µM
  viability, T/C: 92.7%
Second compound 0.0316 µM, first compound 0.001 µM
  viability, T/C: 88.4%
Second compound 0.0316 µM, first compound 0.00316 µM
  viability, T/C: 70.7%
Second compound 0.0316 µM, first compound 0.01 µM
  viability, T/C: 117%
[7]
  viability, T/C: 91.3%
[8]
  viability, T/C: 84.7%
Second compound 0.1 µM, first compound 0.000316 µM
  viability, T/C: 87.9%
Second compound 0.1 µM, first compound 0.001 µM
  viability, T/C: 78.8%
Second compound 0.1 µM, first compound 0.00316 µM
  viability, T/C: 96.3%
Second compound 0.1 µM, first compound 0.01 µM
  viability, T/C: 64.3%
[13]
  viability, T/C: 90.2%
[14]
  viability, T/C: 79.7%
Second compound 0.316 µM, first compound 0.000316 µM
  viability, T/C: 64.3%
Second compound 0.316 µM, first compound 0.001 µM
  viability, T/C: 74.7%
Second compound 0.316 µM, first compound 0.00316 µM
  viability, T/C: 72.8%
Second compound 0.316 µM, first compound 0.01 µM
  viability, T/C: 72.1%
[19]
  viability, T/C: 72.9%
[20]
  viability, T/C: 67.8%
Second compound 1 µM, first compound 0.000316 µM
  viability, T/C: 65%
Second compound 1 µM, first compound 0.001 µM
  viability, T/C: 64.2%
Second compound 1 µM, first compound 0.00316 µM
  viability, T/C: 77.8%
Second compound 1 µM, first compound 0.01 µM
  viability, T/C: 55.7%
[25]
  viability, T/C: 61.6%
[26]
  viability, T/C: 50.9%

## CC(Cn1ccc(-c2ccc(C#N)c(Cl)c2)n1)NC(=O)c1cc(C(C)O)[nH]n1 (centres undefined)
Compound 0.0316 µM
  viability, T/C: 105% [middle of 4 runs]
Compound 0.1 µM
  viability, T/C: 99.6% [middle of 4 runs]
Compound 0.316 µM
  viability, T/C: 101% [middle of 4 runs]
Compound 1 µM
  viability, T/C: 101% [middle of 4 runs]
Compound 3.16 µM
  viability, T/C: 103% [middle of 4 runs]
Curve of compound
  IC50: > 10 µM

## CC(C)NCC(C(=O)N1CCN(c2ncnc3c2C(C)CC3O)CC1)c1ccc(Cl)cc1 (centres undefined) + COc1c(OCCCN2CCOCC2)ccc2c3n(c(=NC(=O)c4cnc(N)nc4)nc12)CCN3
[43]
  IC50: > 10 µM
[44]
  IC50: > 10 µM
[1]
  IC50: > 10 µM
[2]
  IC50: > 10 µM
[3]
  IC50: < 0.0316 µM
[4]
  IC50: < 0.0316 µM
[45]
  viability, T/C: 79.8%
[46]
  viability, T/C: 100%
Second compound 0.00316 µM, first compound 0.316 µM
  viability, T/C: 78.2%
Second compound 0.00316 µM, first compound 1 µM
  viability, T/C: 83.5%
Second compound 0.00316 µM, first compound 3.16 µM
  viability, T/C: 73%
Second compound 0.00316 µM, first compound 10 µM
  viability, T/C: 85.4%
[47]
  viability, T/C: 90.9%
[48]
  viability, T/C: 75.4%
Second compound 0.01 µM, first compound 0.316 µM
  viability, T/C: 102%
Second compound 0.01 µM, first compound 1 µM
  viability, T/C: 66.9%
Second compound 0.01 µM, first compound 3.16 µM
  viability, T/C: 76%
Second compound 0.01 µM, first compound 10 µM
  viability, T/C: 75.5%
[7]
  viability, T/C: 78.8%
[8]
  viability, T/C: 61.5%
[9]
  viability, T/C: 62.5%
[10]
  viability, T/C: 66.7%
[11]
  viability, T/C: 82.9%
[12]
  viability, T/C: 66.4%
[13]
  viability, T/C: 53.7%
[14]
  viability, T/C: 54.1%
[15]
  viability, T/C: 74.5%
[16]
  viability, T/C: 49%
[17]
  viability, T/C: 57.9%
[18]
  viability, T/C: 47.5%
[19]
  viability, T/C: 38.4%
[20]
  viability, T/C: 35.5%
[21]
  viability, T/C: 57.1%
[22]
  viability, T/C: 33.9%
[23]
  viability, T/C: 52.5%
[24]
  viability, T/C: 49.4%
[25]
  viability, T/C: 48.4%
[26]
  viability, T/C: 25.3%
[27]
  viability, T/C: 37.2%
[28]
  viability, T/C: 26.1%
[29]
  viability, T/C: 47.6%
[30]
  viability, T/C: 48.7%
